Data reported in patent US20130189255A1, “FUSIONS AND CONJUGATES OF INSULINOTROPIC AGENTS” (GLAXO GROUP LIMITED, priority 2008, published 2013).
Values joined by “and” are separate entries in the source; they are usually repeats but may differ in a detail not shown here. Identical values can stand only once. Marks after values point to notes of the source that are not given here.

Experiments:
CSA = CSA (Macaca fascicularis, UniProt A2V9Z4); assay: Surface plasmon resonance (Biacore, streptavidin chip with biotinylated serum albumin), CSA; format: binding, cynomolgus monkey; conditions: Biacore SA chip, HBS-EP buffer; read-out: Affinity (KD) to CSA
Description: The analysis was performed using a streptavidin chip (SA) coated with biotinylated serum albumin. 200-1000 resonance units (RUs) of each serum albumin was immobilised on the chip. Flow cell 1 was uncoated, flow cell 2 was coated with HSA, flow cell 3 was coated with RSA and flow cell 4 was coated with CSA. A range of concentrations of fusion was prepared (in the range 15.6 nM to 2 μM by dilution into BIACORE HBS-EP buffer (0.01M HEPES, pH7.4, 0.15M NaCl, 3 mM EDTA, 0.005% surfactant P20) and flowed across the BIACORE chip.
Affinity (KD) was calculated from the BIACORE traces by fitting on-rate and off-rate curves to traces generated by concentrations of dAb in the region of the KD.

db/db mice = assay: Oral glucose tolerance test (OGTT) in db/db mouse model of type II diabetes; format: in vivo
Text: Animals were sorted by decreasing glucose levels three days prior to the start of the experiment and then blocked. One animal within each block was then assigned to each of the 26 study groups. This ensured similar mean starting glucose level in each of the study groups.

cynomolgus monkey = assay: PD in cynomolgus monkey: biscuit consumption; format: in vivo, cynomolgus monkey (Macaca fascicularis)
Text: Protein was extensively QCed (including SDS-PAGE, mass spec, activity assay:GLP-1R-BA, pH check, osmolarity check), filter sterilised and endotoxin removed. Protein with confimed low endotoxin (<0.05 EU/mg protein) was then used for the in vivo study. Six female cynomolgus monkeys (Macaca fascicularis; Charles River Laboratories BRF, Houston, Tex., Primate Products, Miami, Fla. and/or Covance Research Products, Inc., Alice, Tex.) were used in this study. The monkeys were approximately 2 to 9 years old (with a body weight range of approximately 2 to 5 kilograms) at initiation of dosing. The monkeys were housed individually in stainless-steel cages in an environmentally controlled room(s) (64 F to 84 F; 30 to 70% relative humidity) with a 12-hour light/dark cycle. The female monkeys were offered approximately 6 biscuits twice daily of Monkey Diet #5038 (PMI Nutrition International, Richmond, Ind.) and a daily allotment of fresh fruit. […] Dose was at 0.1 mg/Kg. On the days of dosing, the first feeding occurred within approximately 1 hour post dose for each monkey (extended up to 2.5 hours post dose if study-related procedures required animals to be out of their local housing for an extended period of time). The second feeding was no sooner then two hours following the first feeding. For the purpose of environmental enrichment, additional fruit, legume and/or vegetable (e.g., grapes, baby carrots, peanuts) was provided to each monkey at or around the time of viability check or as a method of reward after acclimation or study-related procedures. Filtered tap water (supplied by Aqua Pennsylvania, Inc. and periodically analyzed) was available ad libitum. Plasma samples (approx 2 ml) were collected from the femoral vessel at predose (0 hour) and nominally at 5 minutes (iv group only), 0.5, 4, 8, 24, 48, 96, 144, 192, 288, 336, 504 and 672 hours after dosing. (PK samples from one of the animals in the iv dose group were only collected to 24 h so this animal has been excluded from the PK fitting). Analysis of samples was by mass spectrometry, and fitting of the data was using WinNonLin fitting software. PK parameters were as follows for iv administration (n=2): T1/2 67 h, MRT 46 h, Vz 327 ml/Kg and Cl 3.3 ml/hr/Kg; and for sc administration (n=3): T1/2 68 h, MRT 98 h, Vz 306 ml/Kg and Cl 3.1 ml/hr/Kg. Bioavailability was calculated as 99%. A PK study was conducted in cynomolgus monkey as described above. The principal aim of this study was to determine the pharmacokinetic parameters for DAT0115 in cynomolgus monkey (as described in the previous example), but a secondary aim was to obtain an indication of the efficacy of the DAT0115 compound in the monkeys (without sufficient power in the study for statistical significance). To achieve this secondary aim, biscuit consumption by the monkeys was monitored during the course of the study.

Sequence of CSA (A2V9Z4 25-608): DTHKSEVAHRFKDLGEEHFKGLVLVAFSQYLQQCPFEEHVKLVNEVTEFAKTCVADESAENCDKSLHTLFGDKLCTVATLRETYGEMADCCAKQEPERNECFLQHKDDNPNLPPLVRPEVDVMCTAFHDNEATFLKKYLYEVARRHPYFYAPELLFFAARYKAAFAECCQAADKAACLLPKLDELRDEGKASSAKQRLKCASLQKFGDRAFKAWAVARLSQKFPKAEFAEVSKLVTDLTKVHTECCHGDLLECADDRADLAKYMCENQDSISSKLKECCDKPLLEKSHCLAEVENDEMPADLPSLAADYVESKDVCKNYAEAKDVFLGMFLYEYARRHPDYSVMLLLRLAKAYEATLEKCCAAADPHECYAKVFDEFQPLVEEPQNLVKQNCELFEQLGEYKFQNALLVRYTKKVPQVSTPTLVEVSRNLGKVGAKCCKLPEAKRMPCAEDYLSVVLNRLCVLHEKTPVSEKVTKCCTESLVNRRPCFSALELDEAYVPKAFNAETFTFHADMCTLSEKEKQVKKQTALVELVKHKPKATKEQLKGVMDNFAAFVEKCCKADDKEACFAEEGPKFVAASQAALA

With “Exendin 4 (G4S linker)3 DOM7h-14 dAb fusion [DAT0115]” the Kd (CSA) was 2 µM, the “timepoints out to which glucose AUC was significantly decreased compared to vehicle” value (db/db mice; 0.1 mg/Kg and 0.3 mg/Kg doses sc) was ≤ 24 h and the “percentage reduction in glucose AUC compared to vehicle” value (shortened to “percentage reduction in glucose AUC”) (db/db mice; 0.1 mg/kg sc, OGTT +5 hrs relative to dosing) was 60%*. The “percentage reduction in glucose AUC” value (db/db mice; 0.1 mg/kg sc, OGTT +24 hrs) was 36%*, the “percentage reduction in glucose AUC” value (db/db mice; 0.1 mg/kg sc, OGTT +48 hrs) was 28% and the “percentage reduction in glucose AUC” value (db/db mice; 0.1 mg/kg sc, OGTT +72 hrs) was 16%. The “percentage reduction in glucose AUC” value (db/db mice; 0.1 mg/kg sc, OGTT +96 hrs) was −12%, the “percentage reduction in glucose AUC” value (db/db mice; 0.3 mg/kg sc, OGTT +24 hrs) was 59%* and the “percentage reduction in glucose AUC” value (db/db mice; 0.3 mg/kg sc, OGTT +48 hrs) was 26%. For the same substance, the “percentage reduction in glucose AUC” value (db/db mice; 0.3 mg/kg sc, OGTT +72 hrs) was 26%, the “timepoints out to which glucose AUC was significantly decreased compared to vehicle” value (db/db mice; 1 mg/Kg dose sc) was ≤ 72 h and the “percentage reduction in glucose AUC” value (db/db mice; 1 mg/kg sc, OGTT +5 hrs) was 76%*. The “percentage reduction in glucose AUC” value (db/db mice; 1 mg/kg sc, OGTT +24 hrs) was 50%*, the “percentage reduction in glucose AUC” value (db/db mice; 1 mg/kg sc, OGTT +48 hrs) was 37%* and the “percentage reduction in glucose AUC” value (db/db mice; 1 mg/kg sc, OGTT +72 hrs) was 41%*. The “percentage reduction in glucose AUC” value (db/db mice; 1 mg/kg sc, OGTT +96 hrs) was 12%, the Biscuits consumed daily (cynomolgus monkey; 0.1 mg/Kg (iv), Day 1 (dosing day), individual monkey) was 0 (2×) and 6 and the Biscuits consumed daily (cynomolgus monkey; 0.1 mg/Kg (iv), Day 2, individual monkey) was 0 and 3 and 1. For the same substance, the Biscuits consumed daily (cynomolgus monkey; 0.1 mg/Kg (iv), Day 3, individual monkey) was 0 (2×) and 9, the Biscuits consumed daily (cynomolgus monkey; 0.1 mg/Kg (iv), Day 4, individual monkey) was 0 and 12 and 4 and the Biscuits consumed daily (cynomolgus monkey; 0.1 mg/Kg (iv), Day 5, individual monkey) was 1 and 12 and 6. The Biscuits consumed daily (cynomolgus monkey; 0.1 mg/Kg (iv), Day 6, individual monkey) was 6 and 12 and 10, the Biscuits consumed daily (cynomolgus monkey; 0.1 mg/Kg (iv), Day 7, individual monkey) was 6 and 12 and 11 and the Biscuits consumed daily (cynomolgus monkey; 0.1 mg/Kg (iv), Day −1 (pre-dose), individual monkey) was 12. The Biscuits consumed daily (cynomolgus monkey; 0.1 mg/Kg (iv), Day −2 (pre-dose), individual monkey) was 12, the Biscuits consumed daily (cynomolgus monkey; 0.1 mg/Kg (sc), Day 1 (dosing day), individual monkey) was 5 and 12 and 11 and the Biscuits consumed daily (cynomolgus monkey; 0.1 mg/Kg (sc), Day 2, individual monkey) was 0 (2×) and 12. The Biscuits consumed daily (cynomolgus monkey; 0.1 mg/Kg (sc), Day 3, individual monkey) was 4 and 2 and 11, the Biscuits consumed daily (cynomolgus monkey; 0.1 mg/Kg (sc), Day 4, individual monkey) was 11 and 12 (2×) and the Biscuits consumed daily (cynomolgus monkey; 0.1 mg/Kg (sc), Day 5, individual monkey) was 7 and 12 and 8. The Biscuits consumed daily (cynomolgus monkey; 0.1 mg/Kg (sc), Day 6, individual monkey) was 11 and 12 (2×), the Biscuits consumed daily (cynomolgus monkey; 0.1 mg/Kg (sc), Day 7, individual monkey) was 12 and the Biscuits consumed daily (cynomolgus monkey; 0.1 mg/Kg (sc), Day −1 (pre-dose), individual monkey) was 12. For the same substance, the Biscuits consumed daily (cynomolgus monkey; 0.1 mg/Kg (sc), Day −2 (pre-dose), individual monkey) was 12 and the “food consumption in the days following dosing” value (cynomolgus monkey; 0.1 mg/Kg iv or sc, all monkeys, not powered for significance) was “trend towards reduction in food consumption”.
